The experiment deals with mix-culture of E. coli strains (E20, 41, 55, and 59). Nature of the experiment: Checkerboard titration assay, phage cocktail with antibiotics. It is filed as cell-based. Here is the method:
A checkerboard titration assay was performed as described previously (Hsieh et al. Diagn Microbiol Infect Dis 16, 343-349 (1993)). Briefly, antibiotics (cefoperazone, vancomycin, polymyxin B, and rifampicin) were two-fold serially diluted on each column, and phage cocktail was 10-fold diluted on each row. The mix-culture of E. coli strains (E20, 41, 55, and 59) was added to 10^5 CFU/well, and the plate was incubated at 42° C. for 24 hours. The OD600 was measured with SpectaMax i3 Platfrom (Molecular Devices, San Jose, Calif.), and shown as a heat plot.
Because the selective pressure of the enrichment media is determined by antibiotic supplements in the media, the inhibition efficacy of the phage cocktail was measured in the presence of four antibiotics (cefoperazone, vancomycin, polymyxin B, and rifampicin) used in BB and PB. […] A checkerboard assay was performed to examine the antimicrobial activity of the phage cocktail in combination with antibiotics.

The mark [1] stands for this setting: Escherichia coli, antibiotic without the phage cocktail, 42° C., 24 hours, read-out: MIC.
Where [2] appears, read: antibiotic without the phage cocktail, 42° C., 24 hours.

Read-outs that look alike come from different tables or passages of the source. Where only a bound is given, the exact number is not on record here.

MIC data for four compounds are collected here from patent publication US20220184155A1, “BACTERIOPHAGES FOR INHIBITING BACTERIA” (REGENTS OF THE UNIVERSITY OF MINNESOTA, priority 2020, published 2022).

For `CCN1CCN(C(=O)N[C@@H](C(=O)N[C@@H]2C(=O)N3C(C(=O)O)=C(CSc4nnnn4C)CS[C@H]23)c2ccc(O)cc2)C(=O)C1=O` [cefoperazone], the MIC is, setting by setting: under setting [1], above 512 µg/mL; under setting [2], above 512 µg/mL.
Turning to `CO[C@H]1/C=C/O[C@@]2(C)Oc3c(C)c(O)c4c(O)c(c(/C=N/N5CCN(C)CC5)c(O)c4c3C2=O)NC(=O)/C(C)=C\C=C\[C@H](C)[C@H](O)[C@@H](C)[C@@H](O)[C@@H](C)[C@H](OC(C)=O)[C@@H]1C` [rifampicin], the MIC under setting [1] was 32 µg/mL.
Take `CN[C@H](CC(C)C)C(=O)N[C@H]1C(=O)N[C@@H](CC(N)=O)C(=O)N[C@H]2C(=O)N[C@H]3C(=O)N[C@H](C(=O)N[C@H](C(=O)O)c4cc(O)cc(O)c4-c4cc3ccc4O)[C@H](O)c3ccc(c(Cl)c3)Oc3cc2cc(c3O[C@@H]2O[C@H](CO)[C@@H](O)[C@H](O)[C@H]2O[C@H]2C[C@](C)(N)[C@H](O)[C@H](C)O2)Oc2ccc(cc2Cl)[C@H]1O` [vancomycin]: the MIC (Escherichia coli, 24 h) turned out to be 64 µg/mL.
For the compound polymyxin B, the MIC under setting [2] was found to be 4 µg/mL.
